Each structure is given as a SMILES string.

Consider 13 compounds from patent publication US20230026271A1, “Piperazine Compounds for Inhibiting CPS1” (Eisai R&D Management Co., Ltd., priority 2019, published 2023).

This assay concerns the target T1, CPS1 (Homo sapiens, UniProt P31327).
T1 construct: The full length, human CPS1 gene was cloned into pFastBac HTA; His6 (from the pFastBac HTA vector); made in house; host or cells: SF21 insect cells (baculovirus, Bac-to-bac)
T1 sequence (P31327 39-1500): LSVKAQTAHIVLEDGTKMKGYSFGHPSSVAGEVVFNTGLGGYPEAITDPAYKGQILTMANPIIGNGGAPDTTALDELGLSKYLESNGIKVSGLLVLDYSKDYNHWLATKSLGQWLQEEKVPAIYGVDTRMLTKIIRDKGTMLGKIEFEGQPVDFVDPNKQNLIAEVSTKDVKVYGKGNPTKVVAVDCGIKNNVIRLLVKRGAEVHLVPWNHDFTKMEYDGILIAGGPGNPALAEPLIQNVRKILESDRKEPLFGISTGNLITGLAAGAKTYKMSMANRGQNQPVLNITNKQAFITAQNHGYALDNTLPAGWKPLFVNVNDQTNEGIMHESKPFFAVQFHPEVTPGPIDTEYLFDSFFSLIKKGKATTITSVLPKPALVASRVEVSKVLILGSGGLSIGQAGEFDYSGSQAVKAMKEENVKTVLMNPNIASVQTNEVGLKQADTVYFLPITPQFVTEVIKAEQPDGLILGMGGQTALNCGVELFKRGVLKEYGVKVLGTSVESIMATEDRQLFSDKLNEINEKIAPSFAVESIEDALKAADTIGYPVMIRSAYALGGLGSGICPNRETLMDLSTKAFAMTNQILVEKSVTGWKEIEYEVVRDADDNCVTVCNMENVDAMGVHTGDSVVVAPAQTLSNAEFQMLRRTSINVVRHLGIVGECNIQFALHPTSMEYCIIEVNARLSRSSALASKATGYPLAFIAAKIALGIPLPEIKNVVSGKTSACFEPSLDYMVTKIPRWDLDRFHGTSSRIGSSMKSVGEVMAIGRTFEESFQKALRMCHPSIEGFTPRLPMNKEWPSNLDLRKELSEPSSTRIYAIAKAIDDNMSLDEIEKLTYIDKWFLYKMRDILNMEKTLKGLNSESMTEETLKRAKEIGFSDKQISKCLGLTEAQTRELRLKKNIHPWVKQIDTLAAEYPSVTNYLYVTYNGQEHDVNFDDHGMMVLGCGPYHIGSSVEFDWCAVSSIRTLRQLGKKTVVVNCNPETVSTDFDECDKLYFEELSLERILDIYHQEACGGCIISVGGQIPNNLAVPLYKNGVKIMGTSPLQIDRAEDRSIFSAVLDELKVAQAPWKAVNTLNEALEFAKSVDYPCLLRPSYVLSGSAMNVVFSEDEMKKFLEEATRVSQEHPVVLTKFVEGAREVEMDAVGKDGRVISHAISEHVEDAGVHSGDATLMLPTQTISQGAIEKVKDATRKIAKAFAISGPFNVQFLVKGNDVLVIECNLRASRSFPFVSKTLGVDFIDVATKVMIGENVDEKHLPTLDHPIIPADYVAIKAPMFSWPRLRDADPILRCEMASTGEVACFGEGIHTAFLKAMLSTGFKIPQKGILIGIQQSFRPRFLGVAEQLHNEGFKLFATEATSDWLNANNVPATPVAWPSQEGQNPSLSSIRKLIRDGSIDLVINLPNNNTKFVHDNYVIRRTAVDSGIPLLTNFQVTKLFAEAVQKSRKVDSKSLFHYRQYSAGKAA
Description: ADP-Glo endpoint assay measuring the ATPase activity of CPS1. The assay is classed as biochemical. The conditions noted are these: geometric mean of a minimum of two values; 50 nM CPS1, 10 μM ATP, 0.2 mM NAG, 60 min at room temperature; read-out: ADPGlo IC50. As to the method:
CPS1 was expressed and purified from SF21 insect cells. The full length, human CPS1 gene was cloned into pFastBac HTA and baculovirus was generated using the Bac-to-bac expression system from Invitrogen. P3 virus was used to infect SF21 insect cells at a density of 1.5E6 cells/mL at an MOI of 2. Cells were harvested by centrifugation after 60 hrs and the cell pellet resuspended in lysis buffer (50 mM glycyl glycine pH 7.4, 20 mM KCl, 1 mM TCEP, 10% glycerol and 20 mM imidazole with Roche protease inhibitor tablet) before being lysed with 40 strokes of a Dounce homogenizer on ice. The insoluble fraction of the lysate was then cleared by centrifugation at 30,000 rpm for 30 min. 40 mL of supernatant was mixed with 2 mL of Ni NTA beads for 45 min at 4° C. in a 50 mL conical tube.
The beads were washed with 40 mL of wash buffer (50 mM glycyl glycine pH 7.4, 500 mM NaCl, 1 mM TCEP, 10% glycerol and 50 mM imidazole) by centrifugation and resuspension of the beads three times. Bound CPS1 protein was eluted in 6 mL of elution buffer (50 mM glycyl glycine pH 7.4, 500 mM NaCl, 1 mM TCEP, 10% glycerol and 250 mM imidazole) three times. Elution fractions were combined and concentrated using an Amicon Ultra centrifugation filter with a 10,000 molecular weight cut off. Imidazole was removed by repeated concentration and resuspension in storage buffer in the filter device (50 mM glycyl glycine pH 7.4, 500 mM NaCl, 1 mM TCEP and 20% glycerol). CPS1 was concentrated to a final concentration of ˜3 mg/mL before being aliquoted, flash frozen in liquid nitrogen and stored at −80° C.
CPS1 activity was measured and compounds profiled in an endpoint assay measuring the ATPase activity of CPS1 using the ADP-Glo kit from Promega. 50 nM CPS1 was incubated alone or with varying amounts of tested compound from DMSO stocks in assay buffer (50 mM HEPES pH 7.0, 12.5 mM KHCO3, 1.5 mM (NH4)2SO3, 5 mM MgCl2, 50 mM KCl, 1 mM TCEP, 0.01% TritonX 100, 0.0025% BSA and 0.2 mM NAG) for 20 min in a 3 μL volume in a 384-well plate (Corning Cat#3820). The final concentration of DMSO was 0.04%. The reaction was initiated by the addition of 10 μM ATP, bringing the final volume to 6 μL. After 60 min at room temperature, the reaction was terminated with 3 μL ADP-Glo reagent and incubated at room temperature for 30 min. 3 μL of kinase detection reagent was then added and luminescent signal measured on an Envision plate reader after 30 min.
A general note: ADP-Glo turns the ADP formed in a reaction into a luminescent signal.

Turning to `COc1ccc(C(=O)N2[C@H](C)CN(C(=O)c3ccc(N(C)C)cc3F)C[C@H]2C)c(F)c1` [Compound 20, ((2R,6R)-4-(4-(Dimethylamino)-2-fluorobenzoyl)-2,6-dimethylpiperazin-1-yl)(2-fluoro-4-methoxyphenyl)methanone], the IC50 worked out at 3960 nM. `COc1ccc(C(=O)N2[C@H](C)CN(C(=O)c3ccc4c(c3)CCO4)C[C@H]2C)c(F)c1` [Compound 21, ((2R,6R)-4-(2,3-Dihydrobenzofuran-5-carbonyl)-2,6-dimethylpiperazin-1-yl)(2-fluoro-4-methoxyphenyl)methanone]: the IC50 was determined as 7450 nM. In the case of `COc1ccc(C(=O)N2C[C@@H](C)N(C(=O)c3ccc(C)cc3F)[C@H](C)C2)c(F)c1` [Compound 22, ((2R,6R)-4-(2-Fluoro-4-methoxybenzoyl)-2,6-dimethylpiperazin-1-yl)(2-fluoro-4-methylphenyl)methanone] it was 358 nM. Consider `COc1ccc(C(=O)N2C[C@@H](C)N(C(=O)c3cc(F)c(OC)cc3F)[C@H](C)C2)c(F)c1` [Compound 23, ((3R,5R)-4-(2,5-Difluoro-4-methoxybenzoyl)-3,5-dimethylpiperazin-1-yl)(2-fluoro-4-methoxyphenyl)methanone], for which the IC50 came to 1190 nM. The result for `COc1ccc(C(=O)N2C[C@@H](C)N(C(=O)c3ccc(OCc4ccccc4)cc3F)[C@H](C)C2)c(F)c1` [Compound 24, ((3R,5R)-4-(4-(Benzyloxy)-2-fluorobenzoyl)-3,5-dimethylpiperazin-1-yl)(2-fluoro-4-methoxyphenyl)methanone] reads 995 nM. Regarding `COc1ccc(C(=O)N2C[C@@H](C)N(C(=O)c3c(F)cc(SC)cc3F)[C@H](C)C2)c(F)c1` [Compound 25, ((3R,5R)-4-(2,6-difluoro-4-(methylthio)benzoyl)-3,5-dimethylpiperazin-1-yl)(2-fluoro-4-methoxyphenyl)methanone], the concentration for half-maximal inhibition (IC50) came out at 255 nM. The result for `COc1ccc(C(=O)N2C[C@@H](C)N(C(=O)c3ccc(OC)cc3F)[C@H](C)C2)c(F)c1` [Compound 26, ((2R,6R)-2,6-Dimethylpiperazine-1,4-diyl)bis((2-fluoro-4-methoxyphenyl)methanone)] reads 362 nM; that for `CCOc1ccc(C(=O)N2[C@H](C)CN(C(=O)c3ccc(OC)cc3F)C[C@H]2C)c(F)c1` [Compound 27, ((3R,5R)-4-(4-Ethoxy-2-fluorobenzoyl)-3,5-dimethylpiperazin-1-yl)(2-fluoro-4-methoxyphenyl)methanone], 414 nM; that for `COc1ccc(C(=O)N2C[C@@H](C)N(C(=O)c3c(C)cc(OC)cc3F)[C@H](C)C2)c(F)c1` [Compound 28, ((3R,5R)-4-(2-Fluoro-4-methoxy-6-methylbenzoyl)-3,5-dimethylpiperazin-1-yl)(2-fluoro-4-methoxyphenyl)methanone], 909 nM. The result for `COc1ccc(C(=O)N2C[C@@H](C)N(C(=O)c3ccc(OC)c(F)c3)[C@H](C)C2)c(F)c1` [Compound 29, ((2R,6R)-4-(2-Fluoro-4-methoxybenzoyl)-2,6-dimethylpiperazin-1-yl)(3-fluoro-4-methoxyphenyl)methanone] reads 2300 nM. The result for `COc1ccc(C(=O)N2C[C@@H](C)N(C(=O)c3ccc(OC(C)C)cc3F)[C@H](C)C2)c(F)c1` [Compound 30, ((3R,5R)-4-(2-fluoro-4-isopropoxybenzoyl)-3,5-dimethylpiperazin-1-yl)(2-fluoro-4-methoxyphenyl)methanone] reads 1470 nM; that for `COc1ccc(C(=O)N2C[C@@H](C)N(C(=O)c3ccc(OC(F)(F)F)cc3F)[C@H](C)C2)c(F)c1` [Compound 31, ((3R,5R)-4-(2-fluoro-4-(trifluoromethoxy)benzoyl)-3,5-dimethylpiperazin-1-yl)(2-fluoro-4-methoxyphenyl)methanone], 1190 nM; that for `COc1ccc(C(=O)N2C[C@@H](C)N(C(=O)c3ccc(F)cc3F)[C@H](C)C2)c(F)c1` [Compound 32, ((3R,5R)-4-(2,4-difluorobenzoyl)-3,5-dimethylpiperazin-1-yl)(2-fluoro-4-methoxyphenyl)methanone], 1440 nM.

The IC50 is the point on the concentration scale where inhibition reaches its midpoint.
